Results on 17 compounds are retold here after patent US9562035B2, “Benzamide derivative useful as FASN inhibitors for the treatment of cancer” (Janssen Pharmaceutica NV, priority 2013, dated 2017).

Test [1] relates to A2780 ovarian cells. The test can be described thus: A2780 Ovarian Cell Proliferation Assay in Lipid Reduced Medium, with Palmitate (control). The note with it: Homo sapiens, A2780; lipid reduced medium, 25 μM palmitate, 96 h, MTT; read-out: Proliferation A2780 with Palmitate pIC50 (converted). The format is cell-based. In a few lines:
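Read-out was MTT absorbance at 544 nm after 96 h at 37 °C. Cells grown overnight in RPMI1640/10% FCS were moved to 10% lipid-reduced serum with compound plus palmitate (final 25 μM, 0.2% fatty-acid-free BSA, 0.2% DMSO). IC50 came from least-squares curve fitting, expressed as −log(IC50).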

Test [2] concerns A2780 ovarian cells. The test can be described thus: A2780 Ovarian Cell Proliferation Assay in Lipid Reduced Medium, without Palmitate. The format is cell-based. As to conditions: Homo sapiens, A2780; lipid reduced medium, without palmitate, 96 h, MTT; read-out: Proliferation A2780 w/o Palmitate pIC50 (converted). In a few lines: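 A2780 cells were seeded in 10% FCS medium and switched next day to 10% lipid-reduced serum without palmitate. Compounds at 0.01–30 μM were added with 0.2% DMSO, 0.2% fatty-acid-free BSA and 0.25% ethanol final. After 96 h, MTT absorbance at 544 nm was normalized to plate controls, and IC50/pIC50 came from a 4-parameter logistic fit.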

Test [3] has as its target T1, FASN Keto-reductase Domain (Homo sapiens, UniProt P49327).
T1 construct: 10 μL hFASN enzyme (full length, 300 ng, purified in house) and 360 μM NADPH; made in house
In words: Fatty Acid Synthase Keto-Reductase Domain (FASN KR) Inhibition. Format: biochemical. The note with it: mean where tested more than once; read-out: FASN K-R Domain pIC50 (converted). In a few lines: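 Keto-reductase activity followed as NADPH consumption (A340 drop between 0 and 20 min, room temperature) using in-house full-length hFASN, 360 μM NADPH and ethyl acetoacetate substrate (180 mM stock), pH 7.5 phosphate buffer.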

The target in test [4] is T2, hFASN enzyme (full length) (Homo sapiens, UniProt P49327).
T2 construct: 10 μL hFASN enzyme (full length, 300 ng, purified in house); made in house
T2 sequence (P49327 whole entry): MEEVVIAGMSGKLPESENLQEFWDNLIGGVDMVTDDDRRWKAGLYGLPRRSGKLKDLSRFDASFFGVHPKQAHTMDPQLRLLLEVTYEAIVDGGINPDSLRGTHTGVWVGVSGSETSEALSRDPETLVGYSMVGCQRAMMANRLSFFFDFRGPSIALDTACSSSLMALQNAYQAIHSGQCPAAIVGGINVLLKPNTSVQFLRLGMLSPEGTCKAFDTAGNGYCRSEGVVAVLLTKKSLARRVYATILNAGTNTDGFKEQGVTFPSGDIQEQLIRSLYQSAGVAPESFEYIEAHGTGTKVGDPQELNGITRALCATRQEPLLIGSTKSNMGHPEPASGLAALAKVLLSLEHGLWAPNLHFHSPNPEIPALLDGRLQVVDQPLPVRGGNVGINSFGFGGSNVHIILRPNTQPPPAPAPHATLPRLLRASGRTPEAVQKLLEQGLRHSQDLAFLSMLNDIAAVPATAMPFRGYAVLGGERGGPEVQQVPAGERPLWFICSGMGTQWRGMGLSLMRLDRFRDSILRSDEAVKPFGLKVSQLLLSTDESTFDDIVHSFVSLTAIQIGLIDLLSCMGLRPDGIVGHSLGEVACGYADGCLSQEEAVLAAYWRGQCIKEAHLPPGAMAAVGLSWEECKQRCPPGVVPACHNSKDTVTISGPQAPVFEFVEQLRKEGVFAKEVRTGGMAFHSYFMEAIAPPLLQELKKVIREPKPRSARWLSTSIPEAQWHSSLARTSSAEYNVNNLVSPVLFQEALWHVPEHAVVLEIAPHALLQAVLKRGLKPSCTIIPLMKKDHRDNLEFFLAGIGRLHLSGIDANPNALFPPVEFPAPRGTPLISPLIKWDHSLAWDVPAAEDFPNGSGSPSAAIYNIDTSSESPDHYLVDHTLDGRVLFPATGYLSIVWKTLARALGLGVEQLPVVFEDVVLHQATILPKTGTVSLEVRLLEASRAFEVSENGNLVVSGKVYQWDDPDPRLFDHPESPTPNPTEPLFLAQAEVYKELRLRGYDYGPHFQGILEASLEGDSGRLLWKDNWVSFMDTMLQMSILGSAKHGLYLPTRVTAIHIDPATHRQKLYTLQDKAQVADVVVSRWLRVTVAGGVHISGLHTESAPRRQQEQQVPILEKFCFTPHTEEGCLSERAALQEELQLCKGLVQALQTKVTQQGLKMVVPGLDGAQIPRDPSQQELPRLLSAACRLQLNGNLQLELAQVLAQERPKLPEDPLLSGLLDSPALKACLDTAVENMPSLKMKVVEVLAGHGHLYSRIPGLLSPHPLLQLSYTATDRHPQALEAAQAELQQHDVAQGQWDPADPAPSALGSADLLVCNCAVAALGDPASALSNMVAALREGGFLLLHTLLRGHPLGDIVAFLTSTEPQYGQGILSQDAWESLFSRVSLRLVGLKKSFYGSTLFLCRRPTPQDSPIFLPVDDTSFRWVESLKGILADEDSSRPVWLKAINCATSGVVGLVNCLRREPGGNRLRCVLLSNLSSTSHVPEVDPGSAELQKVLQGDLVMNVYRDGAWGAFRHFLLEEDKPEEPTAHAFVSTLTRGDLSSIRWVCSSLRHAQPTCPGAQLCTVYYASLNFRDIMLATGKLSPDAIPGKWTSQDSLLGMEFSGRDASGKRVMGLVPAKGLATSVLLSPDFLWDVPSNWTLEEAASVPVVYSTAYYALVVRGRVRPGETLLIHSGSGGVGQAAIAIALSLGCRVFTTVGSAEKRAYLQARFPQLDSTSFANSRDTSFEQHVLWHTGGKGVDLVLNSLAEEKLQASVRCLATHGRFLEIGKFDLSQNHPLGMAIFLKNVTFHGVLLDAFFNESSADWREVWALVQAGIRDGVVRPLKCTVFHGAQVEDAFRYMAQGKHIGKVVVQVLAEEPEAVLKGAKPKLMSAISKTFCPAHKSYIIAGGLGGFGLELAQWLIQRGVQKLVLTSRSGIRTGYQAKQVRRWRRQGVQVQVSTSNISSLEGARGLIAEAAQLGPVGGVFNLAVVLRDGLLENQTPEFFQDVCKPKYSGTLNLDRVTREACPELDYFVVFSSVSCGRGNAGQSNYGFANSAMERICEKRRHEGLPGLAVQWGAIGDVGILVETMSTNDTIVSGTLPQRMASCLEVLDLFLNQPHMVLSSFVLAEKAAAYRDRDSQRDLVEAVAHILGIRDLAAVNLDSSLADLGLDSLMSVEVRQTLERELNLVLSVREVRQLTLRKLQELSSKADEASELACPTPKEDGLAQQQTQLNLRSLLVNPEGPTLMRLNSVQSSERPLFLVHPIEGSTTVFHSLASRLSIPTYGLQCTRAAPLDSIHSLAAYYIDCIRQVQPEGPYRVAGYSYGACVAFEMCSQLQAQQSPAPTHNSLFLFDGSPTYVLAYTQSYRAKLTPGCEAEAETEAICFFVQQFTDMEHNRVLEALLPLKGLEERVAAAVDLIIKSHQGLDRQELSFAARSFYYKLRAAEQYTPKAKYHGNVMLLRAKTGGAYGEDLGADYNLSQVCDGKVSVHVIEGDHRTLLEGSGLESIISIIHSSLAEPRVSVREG
In words: Fatty Acid Synthase (FASN) Inhibition Scintillation Proximity Assay. The note with it: for IC50: mean where tested more than once, ~ = standard error of pIC50 larger than 0.5; for inhibition at 10 µM: read-out: FASN % Effect @1E−05M. Format: biochemical. In a few lines: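 Eight compound concentrations (0.01–30 μM) tested in pH 7.5 phosphate buffer with DTT; human full-length enzyme converted [3H]-acetyl-CoA plus malonyl-CoA, with NADPH, over 60 min at room temperature. Hydrophobic [3H]-palmitate detected by bead proximity scintillation imaging; control-normalised data fitted for IC50/pIC50.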

T1 sequence (P49327 whole entry, the tested form may be a part): as the sequence (P49327 whole entry) above

In the case of `Cc1ccc(C(=O)N2CCC(c3ccc(-c4cnn(C)c4)cc3)CC2)cc1NC(=O)c1cncs1` [Compound 174, N-(2-methyl-5-(4-(4-(1-methyl-1H-pyrazol-4-yl)phenyl)piperidine-1-carbonyl)phenyl)thiazole-5-carboxamide], the IC50 with A2780 ovarian cells [1] was over 10000 nM; in the test on A2780 ovarian cells [2], 141 nM; in test [3], 135 nM; in test [4] it was 60.3 nM. Also, the inhibition at 10 µM in test [4] was 103%.

Consider `CCCCC(C)N1CCC(C(=O)Nc2cc(C(=O)N3CCC(c4ccc(-c5cnn(C)c5)cc4)CC3)ccc2C)CC1` (stereo not shown) [Compound 175, 1-(hexan-2-yl)-N-(2-methyl-5-(4-(4-(1-methyl-1H-pyrazol-4-yl)phenyl)piperidine-1-carbonyl)phenyl)piperidine-4-carboxamide], for which the IC50 with A2780 ovarian cells [1] is about 10000 nM; in the test with A2780 ovarian cells [2] it was 38.9 nM; in test [3] it was 77.6 nM; in test [4] it was 49 nM. Further, the inhibition at 10 µM in test [4] stood at 108%.

`CCCCCN1CCC(C(=O)Nc2cc(C(=O)N3CCC(c4ccc(-c5cnn(C)c5)cc4)CC3)ccc2C)CC1` [Compound 176, N-(2-methyl-5-(4-(4-(1-methyl-1H-pyrazol-4-yl)phenyl)piperidine-1-carbonyl)phenyl)-1-pentylpiperidine-4-carboxamide]: the IC50 is about 10000 nM in the test on A2780 ovarian cells [1], 53.7 nM in the test with A2780 ovarian cells [2], 105 nM in test [3] and 33.9 nM in test [4]. Also, the inhibition at 10 µM in test [4] stood at 110%.

For the compound `Cc1ccc(C(=O)N2CCC(c3ccc(-c4cnn(C)c4)cc3)CC2)cc1NC(=O)C1CCN(C2CCCCC2)CC1` [Compound 177, 1-cyclohexyl-N-(2-methyl-5-(4-(4-(1-methyl-1H-pyrazol-4-yl)phenyl)piperidine-1-carbonyl)phenyl)piperidine-4-carboxamide], the IC50 with A2780 ovarian cells [1] is over 10000 nM; with A2780 ovarian cells [2], 13.8 nM; in test [3] it was 50.1 nM; in test [4], 25.7 nM. In test [4], the inhibition at 10 µM was 112%.

On to `Cc1ccc(C(=O)N2CCC(c3ccc(-c4cnn(C)c4)cc3)CC2)cc1NC(=O)C1CCN(CC(C)(C)C)CC1` [Compound 178, N-(2-methyl-5-(4-(4-(1-methyl-1H-pyrazol-4-yl)phenyl)piperidine-1-carbonyl)phenyl)-1-neopentylpiperidine-4-carboxamide], for which the IC50 was over 10000 nM with A2780 ovarian cells [1], 26.9 nM in the test with A2780 ovarian cells [2], 58.9 nM in test [3] and 45.7 nM in test [4]. In addition, the inhibition at 10 µM in test [4] came to 106%.

`Cc1ccc(C(=O)N2CCC(c3ccc(-c4cnn(C)c4)cc3)CC2)cc1NC(=O)C1CCN(CC(C)C)CC1` [Compound 179, 1-isobutyl-N-(2-methyl-5-(4-(4-(1-methyl-1H-pyrazol-4-yl)phenyl)piperidine-1-carbonyl)phenyl)piperidine-4-carboxamide]: the IC50 is over 6170 nM with A2780 ovarian cells [1], 57.5 nM in the test with A2780 ovarian cells [2], 37.2 nM in test [3] and 26.3 nM in test [4]. Also, the inhibition at 10 µM in test [4] was 108%.

In the case of `Cc1ccc(C(=O)N2CCC(c3ccc(-c4cnn(C)c4)cc3)CC2)cc1NC(=O)C1CCN(C2CCCC2)CC1` [Compound 180, 1-cyclopentyl-N-(2-methyl-5-(4-(4-(1-methyl-1H-pyrazol-4-yl)phenyl)piperidine-1-carbonyl)phenyl)piperidine-4-carboxamide], the IC50 with A2780 ovarian cells [1] was over 10000 nM; with A2780 ovarian cells [2], 16.6 nM; in test [3] it was 40.7 nM; in test [4], 25.1 nM. In addition, the inhibition at 10 µM in test [4] turned out to be 104%.

Take `CCCN1CCC(C(=O)Nc2cc(C(=O)N3CCC(c4ccc(-c5cnn(C)c5)cc4)CC3)ccc2C)CC1` [Compound 181, N-(2-methyl-5-(4-(4-(1-methyl-1H-pyrazol-4-yl)phenyl)piperidine-1-carbonyl)phenyl)-1-propylpiperidine-4-carboxamide]: the IC50 with A2780 ovarian cells [1] is over 10000 nM; with A2780 ovarian cells [2], 32.4 nM; in test [3], 110 nM; in test [4], 41.7 nM. Moreover, in test [4], the inhibition at 10 µM worked out at 108%.

Consider `COc1ccc(C(=O)N2CC(c3ccc(-c4cnn(C)c4)cc3)C2)cc1NC(=O)c1ccc(N2CCOCC2)nc1` [Compound 184, N-(2-methoxy-5-(3-(4-(1-methyl-1H-pyrazol-4-yl)phenyl)azetidine-1-carbonyl)phenyl)-6-morpholinonicotinamide], for which the IC50 was over 10000 nM in the test with A2780 ovarian cells [1], 58.9 nM in the test on A2780 ovarian cells [2], 123 nM in test [3] and 36.3 nM in test [4]. Besides, in test [4], the inhibition at 10 µM worked out at 105%.

As to `CCN1CCC(C(=O)Nc2cc(C(=O)N3CCC(c4ccc(-c5cnn(C)c5)cc4)CC3)ccc2C)C1` (stereo not shown) [Compound 185, 1-ethyl-N-(2-methyl-5-(4-(4-(1-methyl-1H-pyrazol-4-yl)phenyl)piperidine-1-carbonyl)phenyl)pyrrolidine-3-carboxamide], the IC50 was over 10000 nM with A2780 ovarian cells [1], about 501 nM with A2780 ovarian cells [2], 501 nM in test [3] and 251 nM in test [4]. For the same compound, in test [4], the inhibition at 10 µM was found to be 101%.

In the case of `CCCN1CCC(C(=O)Nc2cc(C(=O)N3CCC(c4ccc(-c5cnn(C)c5)cc4)CC3)ccc2C)C1` (stereo not shown) [Compound 186, N-(2-methyl-5-(4-(4-(1-methyl-1H-pyrazol-4-yl)phenyl)piperidine-1-carbonyl)phenyl)-1-propylpyrrolidine-3-carboxamide], the IC50 in the test on A2780 ovarian cells [1] was over 10000 nM; with A2780 ovarian cells [2], about 195 nM; in test [3] it was 331 nM; in test [4], 95.5 nM. The inhibition at 10 µM in test [4] was found to be 106%.

Turning to `Cc1ccc(C(=O)N2CCC(c3ccc(-c4cnn(C)c4)cc3)CC2)cc1NC(=O)C1CN(C2CCCC2)C1` [Compound 187, 1-cyclopentyl-N-(2-methyl-5-(4-(4-(1-methyl-1H-pyrazol-4-yl)phenyl)piperidine-1-carbonyl)phenyl)azetidine-3-carboxamide], the IC50 in the test with A2780 ovarian cells [1] was over 10000 nM; in the test with A2780 ovarian cells [2], about 282 nM; in test [3], 302 nM; in test [4] it was 141 nM. In test [4], the inhibition at 10 µM worked out at 103%.

In the case of `Cc1ccc(C(=O)N2CCC(c3ccc(-c4cnn(C)c4)cc3)CC2)cc1NC(=O)C1CCN(CC(C)C)C1` (stereo not shown) [Compound 188, 1-isobutyl-N-(2-methyl-5-(4-(4-(1-methyl-1H-pyrazol-4-yl)phenyl)piperidine-1-carbonyl)phenyl)pyrrolidine-3-carboxamide], the IC50 in the test with A2780 ovarian cells [1] is over 10000 nM; with A2780 ovarian cells [2], 105 nM; in test [3], 170 nM; in test [4] it was 61.7 nM. For the same compound, the inhibition at 10 µM in test [4] came out at 104%.

Consider `Cc1ccc(C(=O)N2CCC(c3ccc(-c4cnn(C)c4)cc3)CC2)cc1NC(=O)C1CCN(C2CCCC2)C1` (stereo not shown) [Compound 189, 1-cyclopentyl-N-(2-methyl-5-(4-(4-(1-methyl-1H-pyrazol-4-yl)phenyl)piperidine-1-carbonyl)phenyl)pyrrolidine-3-carboxamide], for which the IC50 was over 10000 nM with A2780 ovarian cells [1], 263 nM in the test on A2780 ovarian cells [2], 309 nM in test [3] and 126 nM in test [4]. Moreover, the inhibition at 10 µM in test [4] stood at 102%.

With `Cc1ccc(C(=O)N2CCC(c3ccc(-c4cnn(C)c4)cc3)CC2)cc1NC(=O)C1CN(CC(C)(C)C)C1` [Compound 190, N-(2-methyl-5-(4-(4-(1-methyl-1H-pyrazol-4-yl)phenyl)piperidine-1-carbonyl)phenyl)-1-neopentylazetidine-3-carboxamide], the IC50 in the test with A2780 ovarian cells [1] was over 10000 nM; with A2780 ovarian cells [2] it was 257 nM; in test [3] it was 251 nM; in test [4], 74.1 nM. Also, the inhibition at 10 µM in test [4] was determined as 102%.

For the compound `Cc1ccc(C(=O)N2CCC(c3ccc(-c4cnn(C)c4)cc3)CC2)cc1NC(=O)C1CN(C2CCCCC2)C1` [Compound 191, 1-cyclohexyl-N-(2-methyl-5-(4-(4-(1-methyl-1H-pyrazol-4-yl)phenyl)piperidine-1-carbonyl)phenyl)azetidine-3-carboxamide], the IC50 with A2780 ovarian cells [1] is 9330 nM; in the test with A2780 ovarian cells [2] it was 141 nM; in test [3] it was 191 nM; in test [4], 69.2 nM. For the same compound, the inhibition at 10 µM in test [4] was 103%.

For the compound `Cc1ccc(C(=O)N2CCC(c3ccc(-c4cnn(C)c4)cc3)CC2)cc1NC(=O)C1CCN(CC(C)(C)C)C1` (stereo not shown) [Compound 192, N-(2-methyl-5-(4-(4-(1-methyl-1H-pyrazol-4-yl)phenyl)piperidine-1-carbonyl)phenyl)-1-neopentylpyrrolidine-3-carboxamide], the IC50 was over 10000 nM with A2780 ovarian cells [1], 79.4 nM with A2780 ovarian cells [2], 170 nM in test [3] and 53.7 nM in test [4]. In addition, the inhibition at 10 µM in test [4] was 105%.
